Usually Km stands for the concentration of substrate that gives half-maximal velocity.

Molecules are shown by their SMILES. Counter-ions that a name gives are not always drawn.

From PMC2837349 (PLoS ONE, 2010) come the findings set out here.

The subject of the assay is rhinocerase. To be noted: read-out: Km ^a; 0.1M Tris-HCl pH 7.4, 37°C, 7 min; 100 µg enzyme.

For the compound `Cc1cc(=O)oc2cc(NC(=O)[C@H](CCCNC(=N)N)NC(=O)c3ccccc3)ccc12` [Arg-AMC, Nα-benzoyl-L-arginine 7-amido-4-methylcoumarin.HCl], the Michaelis-Menten constant (Km) worked out at 80 ± 2.02 µM.
